Consider 7 compounds from patent US9801388B2, “Method for a pesticide having an insecticide, acaricide and nematicide action based on isoquinoline alkaloids and flavonoids” (PROMOTORA TECNICA INDUSTRIAL, S.A. DE C.V., priority 2011, dated 2017).

In data set [1] the test system is humans. The note with it: toxic for humans; cited from earlier work.
For data set [2], the system named is mammals. The note with it: toxic for mammals; cited from earlier work.
Data set [3] deals with nematodes of the genus Meloidogyne. Kind of data set: In vitro evaluation of effectiveness against Meloidogyne nematodes. It counts as in vivo. The note with it: dilution 1:200, after 48 hours. The protocol: The nematicide capacity of formulation 2 was evaluated; a satisfactory percentage after 48 hours was obtained.
The subject of data set [4] is larvae of genus Plutella. The data set can be described thus: Field evaluation of effectiveness against Plutella larvae in Brassica oleracea crop. The data set is classed as in vivo. The note with it: dose 100 mL/Ha, fourth day after application. The protocol: With the Brassica oleracea crop assessments of the control of larvae of the Plutella genus was performed, the results of this assessment are shown in Table V. The assessment was carried out the fourth day after the application.

Data set [5] concerns insects of the genus Bemisia. The data set can be described thus: In vitro (laboratory) evaluation of effectiveness against Bemisia. The data set is classed as in vivo. The note with it: dose 2 mL/L (recommended by the manufacturer), 24 hours after application. On the procedure:
In the laboratory assay both products were diluted to 5 mL of the formulation in 1 L of distilled water, and they were applied against insects of the genus Bemisia. To compare the effectiveness of the formulation distilled water was also applied as an absolute control and bifenthrin ([1a,3a-(Z)]-(±)-(2methyl[1,1′-biphenyl]-3-il)methyl-3-(2-cloro-3,3,3-trifluorine-1-propenyl-2,2-dimethyl cyclopropanecarboxylate) was applied as a commercial control. The application of the formulation was performed in laboratory conditions using devices to keep the specimens under observation. The effectiveness evaluation was carried out 24 hours after the application.
The experimental unit consisted of four devices that were kept at 26 (±2° C.). Three repetitions of each evaluation were performed.
In Table VI, the effectiveness observed in insects of the genus Bemisia after 24 hours of observation with each of the treatments is detailed. The dose of the commercial control (Bifenthrin) was that recommended by the manufacturer.

The test system of data set [6] is Diaphorina sp adults. The data set can be described thus: Field evaluation of effectiveness against Diaphorina sp adults in Citrus sp. crop. It counts as in vivo. The note with it: dose 5 mL/L. On the procedure:
(§1) In accordance with the effectiveness percentages mentioned above, both of the developed products show a significant effectiveness to control insects belonging to the genus Bemisia. The evaluation was carried out four days after the application. The formulations were also applied to observe their effectiveness in the crop of Citrus sp. in controlling two pest species: Diaphorina sp. (adult and nymph) and mites of the genus Polyphagotarsonemus.
(§2) Table III describes the effectiveness of the above mentioned treatments in controlling Diaphorina sp. nymphs.

Data set [7] deals with Diaphorina sp nymphs. Kind of data set: Field evaluation of effectiveness against Diaphorina sp nymphs in Citrus sp. crop. It counts as in vivo. The note with it: dose 5 mL/L. The protocol: as §1, §2

With `C=C(C)[C@H]1Cc2c(ccc3c2O[C@@H]2COc4cc(OC)c(OC)cc4[C@@H]2C3=O)O1` [Rotenone], in data set [1], the DL50 is listed as 132 mg/kg. Consider `COc1ccc(C(=O)O[C@H]2CC[C@@]3(C)[C@@H]4CC[C@H]5[C@]6(O)C[C@H](O)[C@@]7(O)[C@@H](CN8C[C@@H](C)CC[C@H]8[C@@]7(C)O)[C@]6(O)C[C@@]53O[C@]24O)cc1OC` [veratridine], for which, in data set [2], the DL50 is 13 mg/kg. `CNC(=O)Oc1cccc2c1OC(C)(C)C2` [Carbofuran] showed an Effectiveness % in data set [3] of 100%. With Spinosad, the Effectiveness % in data set [4] is reported as 52.8%. For the compound `Cc1c(COC(=O)[C@@H]2[C@H](/C=C(\Cl)C(F)(F)F)C2(C)C)cccc1-c1ccccc1` (racemic) [Bifenthrin, [1a,3a-(Z)]-(±)-(2methyl[1,1′-biphenyl]-3-il)methyl-3-(2-cloro-3,3,3-trifluorine-1-propenyl-2,2-dimethyl cyclopropanecarboxylate], the Effectiveness % in data set [5] was 97.18%. On to `C/C=C(/C)C(=O)O[C@H]1CC[C@@]2(C)[C@@H]3CC[C@H]4[C@]5(O)C[C@H](O)[C@@]6(O)[C@@H](CN7C[C@@H](C)CC[C@H]7[C@@]6(C)O)[C@]5(O)C[C@@]42O[C@]13O` [cevadine], for which the DL50 in data set [2] is 13 mg/kg.

On to `CNC(=O)CSP(=S)(OC)OC` [Dimethoate], for which the Effectiveness % in data set [6] and in data set [7] was 100% each time.
